# Tests used:
# Format in all cases: physicochemical
# [1] = Supercooling activity, droplets on cooled copper plate, silver iodide as ice nucleus substance; conditions: for supercooling activity: against an ice nucleus substance AgI, concentration not given; for freezing temperature (INT50): 0.1 mass % substance, 10 mM AgI, cooling 0.2° C./min
# Method: (§1) In the present invention, a supercooling activity (also referred to as ice nucleus formation inhibitory activity) was measured by the following method. That is, an object to be measured was mixed at […] in a buffer containing an ice nucleus substance to prepare a solution, and many 2-μL liquid droplets of the solution were placed on a copper plate where the temperature could be controlled. The copper plate was cooled at 0.2° C./min, and the number of frozen liquid droplets was visually observed. The temperature at which 50% of the liquid droplets were frozen was defined as a freezing temperature, and a difference between the freezing temperature of the solution including the object to be measured and the ice nucleus substance and the freezing temperature of a solution including only the ice nucleus substance and the buffer (control) (INT50 (° C.)) was defined as a supercooling activity. As the buffer, a 50 mM potassium phosphate buffer (pH 7.0) was used.
# In Examples 4 to 8 below, 10 mM silver iodide (AgI) (manufactured by NACALAI TESQUE, INC.), 2 mg/mL dead bacterial cells of an ice nucleation active bacterium Erwinia ananas (manufactured by Wako Pure Chemical Industries, Ltd.), 2 mg/mL dead bacterial cells of an ice nucleation active bacterium Xanthomonas campestris (manufactured by Wako Pure Chemical Industries, Ltd.), and 120 mM phloroglucinol (manufactured by TOKYO CHEMICAL […] CO., LTD.) were used as ice nucleus substances, and ultrapure water obtained by passing water through an ultrapure water device manufactured by Millipore Corporation was used (MilliQ Water). A substance to be measured (1 mg/mL) was mixed in a buffer containing any one of the ice nucleus substances and ultrapure water (MilliQ Water), and the supercooling activities were measured by the above-mentioned method. A difference between the freezing temperature of the solution containing the substance to be measured and the ice nucleus substance and the freezing temperature of the solution including only the ice nucleus substance, and a difference between the freezing temperature of pure water having dissolved therein the substance to be measured and the freezing temperature of only pure water were determined as supercooling activities (ice nucleus formation inhibitory activities) (see FIGS. 8 to 11 and Tables 1 to 4).
# [2] = system: dead bacterial cells of an ice nucleation active bacterium (Erwinia ananas); assay: Supercooling activity (ice nucleus formation inhibitory activity), 2-μL droplets on cooled copper plate, Erwinia ananas as ice nucleus substance; conditions: for freezing temperature (INT50): 0.1 mass % substance, 2 mg/mL dead E. ananas cells, cooling 0.2° C./min, temperature at which 50% of droplets froze; for activity that allows water to be supercooled: 2 mg/mL Erwinia ananas, substance 0.01 to 3 mg/mL (FIG. 6)
# Method: as §1
# The water suspension of the crude extract was centrifuged at 20° C. and 14,000 G, and the supernatant was collected. 300 mL of the supernatant and 600 mL of ethyl acetate were mixed, and the mixture was divided into a water-soluble part and an ethyl acetate-soluble part by a separating funnel, followed by drying. Supercooling activities of the parts were measured by the above-mentioned method. Dead bacterial cells of an ice nucleation active bacterium (Erwinia ananas) (manufactured by Wako Pure Chemical Industries, Ltd.) were used as an ice nucleus substance.
# The fractions K to S obtained above were analyzed by high-performance liquid chromatography (column: PC hydrophilic interaction chromatography column (HILIC), solvent: acetonitrile:water=9:1, flow rate: 1 mL/min, detector: UV 280 nm). […] The three substances are known substances, and their structures were confirmed by ^1H-NMR. FIGS. 3 to 5 show the resultant ^1H-NMR charts. FIG. 6 show the supercooling activity of water containing each of the three substances with 2 mg/mL Erwinia ananas serving as an ice nucleus-forming substance, together with control data in the case of containing none of the three substances.
# A substance to be measured (1 mg/mL) was mixed in a buffer containing any one of the ice nucleus substances and ultrapure water (MilliQ Water), and the supercooling activities were measured by the above-mentioned method. A difference between the freezing temperature of the solution containing the substance to be measured and the ice nucleus substance and the freezing temperature of the solution including only the ice nucleus substance, and a difference between the freezing temperature of pure water having dissolved therein the substance to be measured and the freezing temperature of only pure water were determined as supercooling activities (ice nucleus formation inhibitory activities) (see FIGS. 8 to 11 and Tables 1 to 4).
# [3] = Supercooling activity, droplets on cooled copper plate, phloroglucinol as ice nucleus substance; conditions: 0.1 mass % substance; 120 mM phloroglucinol; cooling 0.2° C./min
# Method: as §1
# (§2) In Examples 4 to 8 below, 10 mM silver iodide (AgI) (manufactured by NACALAI TESQUE, INC.), 2 mg/mL dead bacterial cells of an ice nucleation active bacterium Erwinia ananas (manufactured by Wako Pure Chemical Industries, Ltd.), 2 mg/mL dead bacterial cells of an ice nucleation active bacterium Xanthomonas campestris (manufactured by Wako Pure Chemical Industries, Ltd.), and 120 mM phloroglucinol (manufactured by TOKYO CHEMICAL […] CO., LTD.) were used as ice nucleus substances, and ultrapure water obtained by passing water through an ultrapure water device manufactured by Millipore Corporation was used (MilliQ Water). A substance to be measured (1 mg/mL) was mixed in a buffer containing any one of the ice nucleus substances and ultrapure water (MilliQ Water), and the supercooling activities were measured by the above-mentioned method. […]
# [4] = system: dead bacterial cells of an ice nucleation active bacterium Xanthomonas campestris; assay: Supercooling activity, droplets on cooled copper plate, Xanthomonas campestris as ice nucleus substance; conditions: 0.1 mass % substance; 2 mg/mL dead X. campestris cells; cooling 0.2° C./min
# Method: as §1, with “used. […]” for “used.”
# [5] = Supercooling activity, droplets on cooled copper plate, ultrapure water without ice nucleus substance; conditions: 0.1 mass % substance; ultrapure water (MilliQ Water); cooling 0.2° C./min
# Method: as §1, §2
molecule,measurement,setting,value
"O=c1oc2c(O)c(O)cc3c(=O)oc4c(O)c(O)cc1c4c23 [EA, ellagic acid]",supercooling activity,[1],−0.3 °C
"O=C(O[C@@H]1Cc2c(O)cc(O)cc2O[C@@H]1c1ccc(O)c(O)c1)c1cc(O)c(O)c(O)c1 [ECG, epicatechin gallate]",freezing temperature (INT50),[2],−8.4 °C
same,freezing temperature (INT50),[3],−9.6 °C
same,freezing temperature (INT50),[1],−7.8 °C
same,freezing temperature (INT50),[4],−8.7 °C
same,freezing temperature (INT50),[5],−18.7 °C
"2,3,6-tri-O-galloyl-α,β-D-hamamelose",activity that allows water to be supercooled,[2],about 5 °C
"Oc1cc(O)c2c(c1)O[C@H](c1cc(O)c(O)c(O)c1)[C@H](O)C2 [EGC, epigallocatechin]",freezing temperature (INT50),[2],−5.7 °C
same,freezing temperature (INT50),[3],−8.8 °C
same,freezing temperature (INT50),[1],−6.9 °C
same,freezing temperature (INT50),[5],−15.8 °C
"O=C(/C=C/c1ccc(O)c(O)c1)O[C@@H]1C[C@](O)(C(=O)O)C[C@@H](O)[C@H]1O [ChA, chlorogenic acid]",supercooling activity,[1],−0.6 °C
"COC(=O)c1cc(O)c(O)c(O)c1 [MG, methyl gallate]",supercooling activity,[1],−3.3 °C
"O=C(O[C@@H]1Cc2c(O)cc(O)cc2O[C@@H]1c1cc(O)c(O)c(O)c1)c1cc(O)c(O)c(O)c1 [EGCG, epigallocatechin gallate]",freezing temperature (INT50),[2],−8.3 °C
same,freezing temperature (INT50),[3],−8.4 °C
same,freezing temperature (INT50),[1],−6.9 °C
same,freezing temperature (INT50),[4],−8.9 °C
same,freezing temperature (INT50),[5],−20.0 °C
"O=C(O)c1cc(O)c(O)c(O)c1 [GA, gallic acid]",supercooling activity,[1],−1.2 °C
"O=C(OC[C@H]1O[C@@H](OC(=O)c2cc(O)c(O)c(O)c2)[C@H](OC(=O)c2cc(O)c(O)c(O)c2)[C@@H](OC(=O)c2cc(O)c(O)c(O)c2)[C@@H]1O)c1cc(O)c(O)c(O)c1 [1,2,3,6-tetra-O-galloyl-β-D-glucose]",activity that allows water to be supercooled,[2],about 5 °C
"O=C(O)/C=C/c1ccc(O)c(O)c1 [CaA, caffeic acid]",supercooling activity,[1],−1.9 °C
"O=C(OC[C@H]1O[C@@H](OC(=O)c2cc(O)c(O)c(O)c2)[C@H](OC(=O)c2cc(O)c(O)c(O)c2)[C@@H](O)[C@@H]1O)c1cc(O)c(O)c(O)c1 [1,2,6-tri-O-galloyl-β-D-glucose]",activity that allows water to be supercooled,[2],about 5 °C
